Laboratory results: US20250361259A1, “AMORPHOUS FORM OF REDUCED ß-NICOTINAMIDE MONONUCLEOTIDE CALCIUM SALT, AND PREPARATION METHOD AND USE THEREFOR” (EffePharm (Shanghai) Co., Ltd., priority 2023, published 2025)
Where two headings read alike, the source gives them in different places.

Legend:
[1] = Hygroscopicity study (water content, KF) at 25° C., 65% RH; format: physicochemical
Description: The NMNH calcium salt amorphous solids A/B/C/D were each placed openly in a stability test chamber at 25° C. and 65% RH to evaluate their stability, yielding the data shown in Table 1 and Table 2. […] The amorphous solid of NMNH disodium salt is more unstable in the air. After 1 day of storage, it absorbs water from powder to oil, and the purity drops from 99.30% to 99.02%.

[2] = Stability comparison, solids placed openly in a stability test chamber at 25° C. and 65% RH (purity by HPLC, appearance); format: physicochemical; settings: open, calcium salt
Description: NMNH is the reduced form of NMN, sensitive to air, easily oxidized, and unstable, making it unsuitable for long-term storage and market promotion. WO2023160405(A1) reported the NMNH disodium salt compound and its crystalline and amorphous forms. […] Such stability fails to meet the shelf-life requirements for commercial products, hindering market promotion. The NMNH calcium salt amorphous solids A/B/C/D were each placed openly in a stability test chamber at 25° C. and 65% RH to evaluate their stability, yielding the data shown in Table 1 and Table 2.

[3] = 25° C., 65% RH, according to WO2023160405(A1), cited from earlier work
[4] = according to WO2023160405(A1); cited from earlier work

Compound	Water content of NMNH calcium salt amorphous solid (KF) ([1]; 0 day)	Water content of NMNH calcium salt amorphous solid (KF) ([1]; 5 days)	Water content of NMNH calcium salt amorphous solid (KF) ([1]; 60 days)	Purity (HPLC, area %) ([2]; 0 day)	Purity (HPLC, area %) ([2]; 5 days)	Purity (HPLC, area %) ([2]; 60 days)	other results
NC(=O)C1=CN([C@@H]2O[C@H](COP(=O)(O)O)[C@@H](O)[C@H]2O)C=CC1.[Ca+2] [NMNH calcium salt Amorphous form A, reduced β-nicotinamide mononucleotide calcium salt]	0.8%	0.8%	0.9%	99.51%	99.50%	99.50%	
NC(=O)C1=CN([C@@H]2O[C@H](COP(=O)(O)O)[C@@H](O)[C@H]2O)C=CC1.[Ca+2] [NMNH calcium salt Amorphous form B, reduced β-nicotinamide mononucleotide calcium salt]	1.3%	1.3%	1.3%	99.28%	99.28%	99.28%	
NC(=O)C1=CN([C@@H]2O[C@H](COP(=O)([O-])[O-])[C@@H](O)[C@H]2O)C=CC1.[Na+].[Na+] [NMNH disodium salt Amorphous form, NMNH disodium salt]							Purity (HPLC, area %) ([3]; 0 day, disodium salt): 99.30%; Purity (HPLC, area %) ([3]; 0 day, listed as NMNH disodium salt amorphous powder, disodium salt): 99.30%; Purity (HPLC, area %) ([3]; 0 day, listed as amorphous solid of NMNH disodium salt, disodium salt): 99.30%; Appearance after storage (powder to oil) ([3]; 1 day): oil; Purity (HPLC, area %) ([3]; 1 day, disodium salt): 99.02%; Purity (HPLC, area %) ([3]; 1 day, listed as NMNH disodium salt amorphous powder, disodium salt): 99.02%; Purity (HPLC, area %) ([3]; 1 day, listed as amorphous solid of NMNH disodium salt, disodium salt): 99.02%
NC(=O)C1=CN([C@@H]2O[C@H](COP(=O)([O-])[O-])[C@@H](O)[C@H]2O)C=CC1.[Na+].[Na+] [NMNH disodium salt Crystal form A, NMNH disodium salt]							Purity (HPLC, area %) ([3]; 0 day, disodium salt): 99.33%; Purity (HPLC, area %) ([3]; 0 day, listed as NMNH disodium salt crystal form A, disodium salt): 99.33%; Purity (HPLC, area %) ([3]; 0 day, listed as NMNH disodium salt crystalline Form A solid, disodium salt): 99.33%; Purity (HPLC, area %) ([3]; 1 day, disodium salt): 99.27%; Purity (HPLC, area %) ([3]; 5 days): 99.01%
NC(=O)C1=CN([C@@H]2O[C@H](COP(=O)([O-])[O-])[C@@H](O)[C@H]2O)C=CC1.[Na+].[Na+] [NMNH disodium salt crystal form B, NMNH disodium salt]							Solid form change when stored in the air [4]: absorb water and transform into crystal form A

Continued, in another order:

Water content of NMNH calcium salt amorphous solid (KF) ([1]; 0 day)	Water content of NMNH calcium salt amorphous solid (KF) ([1]; 5 days)	Water content of NMNH calcium salt amorphous solid (KF) ([1]; 60 days)	Purity (HPLC, area %) ([2]; 0 day)	Purity (HPLC, area %) ([2]; 5 days)	Purity (HPLC, area %) ([2]; 60 days)	Compound	other results
1.5%	1.6%	1.5%	99.14%	99.14%	99.13%	NC(=O)C1=CN([C@@H]2O[C@H](COP(=O)(O)O)[C@@H](O)[C@H]2O)C=CC1.[Ca+2] [NMNH calcium salt Amorphous form C, reduced β-nicotinamide mononucleotide calcium salt]	
1.9%	1.9%	1.9%	99.50%	99.49%	99.49%	NC(=O)C1=CN([C@@H]2O[C@H](COP(=O)(O)O)[C@@H](O)[C@H]2O)C=CC1.[Ca+2] [NMNH calcium salt Amorphous form D, reduced β-nicotinamide mononucleotide calcium salt]	
